Assay results taken from patent US20130225583A1, “SUBSTITUTED AMINO-TRIAZOLYL PDE10 INHIBITORS” (priority 2010, published 2013).

Each molecule was assayed against T1, human PDE10A2 (Homo sapiens, UniProt Q9Y233) (assay: PDE10 fluorescence polarization (IMAP FP) inhibition assay). Conditions: apparent inhibition constant; FAM-labeled cAMP 50 nM; lysate of AD293 cells transfected with human PDE10A2; room temperature; read-out: PDE10a Ki.
T1 construct: made in house; host or cells: AD293 cells, transiently transfected; The cytosolic supernatant of the lysate served as the enzyme
Assay type: biochemical
Procedure: The activity of the compounds in accordance with the present invention as PDE10 inhibitors may be readily determined without undue experimentation using a fluorescence polarization (FP) methodology that is well known in the art (Huang, W., et al., J. Biomol Screen, 2002, 7: 215).
In a typical experiment the PDE 10 inhibitory activity of the compounds of the present invention was determined in accordance with the following experimental method. PDE 10A2 was amplified from human fetal brain cDNA (Clontech, Mountain View, Calif.) using a forward primer corresponding to nucleotides 56-77 of human PDE10A2 (Accession No. AF127480, Genbank Identifier 4894716), containing a Kozak consensus sequence, and a reverse primer corresponding to nucleotides 2406-2413 of human PDE10A2 (Accession No. AF127480, Genbank Identifier 4894716). Amplification with Easy-A polymerase (Stratagene, La Jolla, Calif.) was 95° C. for 2 minutes followed by thirty three cycles of 95° C. for 40 seconds, 55° C. for 30 seconds, and 72° C. for 2 minutes 48 seconds. Final extension was 72° C. for 7 minutes. The PCR product was TA cloned into pcDNA3.2-TOPO (Invitrogen, Carlsbad, Calif.) according to standard protocol. AD293 cells with 70-80% confluency were transiently transfected with human PDE10A2/pcDNA3.2-TOPO using Lipofectamine 2000 according to manufacturer specifications (Invitrogen, Carlsbad, Calif.). Cells were harvested 48 hours post-transfection and lysed by sonication (setting 3, 10×5 sec pulses) in a buffer containing 20 mM HEPES, 1 mM EDTA and protease inhibitor cocktail (Roche). Lysate was collected by centrifugation at 75,000×g for 20 minutes. Supernatant containing the cytoplasmic fraction was used for evaluation of PDE10A2 activity. The fluorescence polarization assay for cyclic nucleotide phosphodiesterases was performed using an IMAP® FP kit supplied by Molecular Devices, Sunnyvale, Calif. (product # R8139). IMAP® technology has been applied previously to phosphodiesterase assays (Huang, W., et al., J. Biomol Screen, 2002, 7: 215). Assays were performed at room temperature in 384-well microtiter plates with an incubation volume of 20.2 μL. Solutions of test compounds were prepared in DMSO and serially diluted with DMSO to yield 8 μL of each of 10 solutions differing by 3-fold in concentration, at 32 serial dilutions per plate. 100% inhibition is determined using a known PDE 10 inhibitor, which can be any compound that is present at 5,000 times its Ki value in the assay described as follows, such as papaverine (see Siuciak, et al. Neuropharmacology (2006) 51:386-396; Becker, et al. Behav Brain Res (2008) 186(2):155-60; Threlfell, et al., J Pharmacol Exp Ther (2009) 328(3):785-795), 2-{4-[pyridin-4-yl-1-(2,2,2-trifluoroethyl)-1H-pyrazol-3-yl]phenoxymethyl}quinoline succinic acid or 2-[4-(1-methyl-4-pyridin-4-yl-1H-pyrazol-3-yl)-phenoxymethyl]quinoline succinic acid (see Schmidt, et al. J Pharmacol Exp Ther (2008) 325:681-690; Threlfell, et al., J Pharmacol Exp Ther (2009) 328(3): 785-795). 0% of inhibition is determined by using DMSO (1% final concentrations). A Labcyte Echo 555 (Labcyte, Sunnyvale, Calif.) is used to dispense 200 nL from each well of the titration plate to the 384 well assay plate. A solution of enzyme ( 1/7000 dilution from aliquots; sufficient to produce 20% substrate conversion) and a separate solution of FAM-labeled cAMP PDE from Molecular Devices (product # R7506), at a final concentration of 50 nM are made in the assay buffer (10 mM Tris HCl, pH 7.2, 10 mM MgCl2, 0.05% NaN3 0.01% Tween-20, and 1 mM DTT). The enzyme is added to the assay plates by the addition of 10 μL of enzyme solution to each well, shaken to mix and incubated at room temperature for 60 minutes. The substrate is then added to the assay plates by the addition of 10 μL of substrate solution to each well, shaken to mix, and incubated at room temperature for 60 minutes. […]

T1 sequence (Q9Y233 267-1055): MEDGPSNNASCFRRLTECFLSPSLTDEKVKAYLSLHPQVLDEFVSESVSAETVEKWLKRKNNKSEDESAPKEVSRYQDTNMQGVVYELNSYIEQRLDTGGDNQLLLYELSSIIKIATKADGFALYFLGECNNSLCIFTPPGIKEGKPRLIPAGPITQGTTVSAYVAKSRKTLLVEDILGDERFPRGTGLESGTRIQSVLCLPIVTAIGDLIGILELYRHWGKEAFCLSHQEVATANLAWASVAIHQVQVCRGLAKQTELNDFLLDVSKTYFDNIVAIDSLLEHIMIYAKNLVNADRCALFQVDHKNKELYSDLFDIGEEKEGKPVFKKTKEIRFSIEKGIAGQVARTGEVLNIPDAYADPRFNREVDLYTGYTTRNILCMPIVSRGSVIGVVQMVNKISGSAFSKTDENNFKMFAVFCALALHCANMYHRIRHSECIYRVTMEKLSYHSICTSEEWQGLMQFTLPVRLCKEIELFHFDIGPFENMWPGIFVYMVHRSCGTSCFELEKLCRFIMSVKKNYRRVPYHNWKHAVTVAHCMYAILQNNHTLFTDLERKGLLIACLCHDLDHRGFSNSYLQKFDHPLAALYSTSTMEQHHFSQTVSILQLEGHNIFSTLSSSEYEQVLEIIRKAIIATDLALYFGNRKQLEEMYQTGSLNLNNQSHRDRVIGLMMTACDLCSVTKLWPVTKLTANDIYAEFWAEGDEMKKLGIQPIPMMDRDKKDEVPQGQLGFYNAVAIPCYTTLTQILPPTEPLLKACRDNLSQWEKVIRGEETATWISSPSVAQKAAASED

Q: Which Ki does the source give for `COc1ccc(Cc2nc(N)nn2-c2cc(OCc3ccc(-c4ccncc4)cc3)ncn2)cc1OC` [1-42, 5-(3,4-dimethoxybenzyl)-1-(6-(4-(pyridin-4-yl)benzyloxy)pyrimidin-4-yl)-1H-1,2,4-triazol-3-amine] here?
A: 270 nM

Q: Which Ki does the source give for `COc1ccc(Cc2nc(N)nn2-c2cc(=O)n(C(C)C)cn2)cc1OC` [1-69, 6-(3-amino-5-(3,4-dimethoxybenzyl)-1H-1,2,4-triazol-1-yl)-3-isopropylpyrimidin-4(3H)-one] here?
A: 540 nM

Q: `COc1ccc(Cc2nc(N)nn2-c2cc(OCc3ccccc3-c3cccs3)ncn2)cc1OC` [1-43, 5-(3,4-dimethoxybenzyl)-1-(6-(2-(thiophen-2-yl)benzyloxy)pyrimidin-4-yl)-1H-1,2,4-triazol-3-amine] was tested. Which Ki did it give?
A: 19 nM

Q: `COc1ccc(Cc2nc(N)nn2-c2cc(=O)n(CCc3ccccn3)cn2)cc1OC` [1-47, 6-(3-amino-5-(3,4-dimethoxybenzyl)-1H-1,2,4-triazol-1-yl)-3-(2-(pyridin-2-yl)ethyl)pyrimidin-4(3H)-one] was tested. Which Ki did it give?
A: 70 nM

Q: With `COc1ccc(CNc2nc(Cc3ccc(OC)c(OC)c3)n(-c3ccccn3)n2)cc1` [1-13, 5-(3,4-dimethoxybenzyl)-N-(4-methoxybenzyl)-1-(pyridin-2-yl)-1H-1,2,4-triazol-3-amine] as the molecule, how does the Ki read?
A: 780 nM

Q: With `COc1ccc(Cc2nc(N)nn2-c2cc(OCC3(c4ccccc4)CC3(F)F)ncn2)cc1OC` (stereo not drawn) [1-46, 1-(6-((2,2-difluoro-1-phenylcyclopropyl)methoxy)pyrimidin-4-yl)-5-(3,4-dimethoxybenzyl)-1H-1,2,4-triazol-3-amine] as the molecule, how does the Ki read?
A: 5.6 nM

Q: Which Ki does the source give for `COc1ccc(Cc2nc(N)nn2-c2ccccn2)cc1OC` [1-14, 5-(3,4-dimethoxybenzyl)-1-(pyridin-2-yl)-1H-1,2,4-triazol-3-amine] here?
A: 250 nM

Q: How did the Ki turn out when `COc1ccc(Cc2nc(N)nn2-c2cc(OCC3CC3c3ccccc3)ncn2)cc1OC` (stereo not drawn) [1-67, 5-(3,4-dimethoxybenzyl)-1-(6-((2-phenylcyclopropyl)methoxy)pyrimidin-4-yl)-1H-1,2,4-triazol-3-amine] was run?
A: 320 nM

Q: How did the Ki turn out when `COc1ccc(Cc2nc(N)nn2-c2cc(=O)n(Cc3nc4ccccc4s3)cn2)cc1OC` [1-73, 6-(3-amino-5-(3,4-dimethoxybenzyl)-1H-1,2,4-triazol-1-yl)-3-(benzo[d]thiazol-2-ylmethyl)pyrimidin-4(3H)-one] was run?
A: < 3.8 nM

Q: For `COc1ccccc1COc1cc(-n2nc(N)nc2Cc2ccc(OC)c(OC)c2)ncn1` [1-35, 5-(3,4-dimethoxybenzyl)-1-(6-(2-methoxybenzyloxy)pyrimidin-4-yl)-1H-1,2,4-triazol-3-amine], which Ki is on record?
A: 880 nM

Q: How did the Ki turn out when `COc1ccc(CNc2nc(Cc3ccc(OC)c(OC)c3)n(C)n2)cc1` [1-11, 5-(3,4-dimethoxybenzyl)-N-(4-methoxybenzyl)-1-methyl-1H-1,2,4-triazol-3-amine] was run?
A: 24.8 nM

Q: For `COc1ccc(Cc2nc(N)nn2-c2cc(=O)n(CCc3cccs3)cn2)cc1OC` [1-51, 6-(3-amino-5-(3,4-dimethoxybenzyl)-1H-1,2,4-triazol-1-yl)-3-(2-(thiophen-2-yl)ethyl)pyrimidin-4(3H)-one], which Ki is on record?
A: 23 nM

Q: How did the Ki turn out when `COc1ccc(Cc2nc(N)nn2-c2cc(OCc3cncc(N4CCNCC4)n3)ncn2)cc1OC` [1-45, 5-(3,4-dimethoxybenzyl)-1-(6-((6-(piperazin-1-yl)pyrazin-2-yl)methoxy)pyrimidin-4-yl)-1H-1,2,4-triazol-3-amine] was run?
A: 570 nM

Q: How did the Ki turn out when `COc1ccc(Cc2nc(N)nn2-c2cc(OC3Cc4ccccc4C3)ncn2)cc1OC` [1-39, 1-(6-(2,3-dihydro-1H-inden-2-yloxy)pyrimidin-4-yl)-5-(3,4-dimethoxybenzyl)-1H-1,2,4-triazol-3-amine] was run?
A: 970 nM

Q: Which Ki does the source give for `COc1ccc(Cc2nc(N)nn2-c2cc(OCc3ccc4ccccc4n3)ncn2)cc1OC` [1-68, 5-(3,4-dimethoxybenzyl)-1-(6-(quinolin-2-ylmethoxy)pyrimidin-4-yl)-1H-1,2,4-triazol-3-amine] here?
A: 760 nM
